Measured values: ChEMBL document CHEMBL4038262, “Design, synthesis and antibacterial activities of thiouracil derivatives containing acyl thiourea as SecA inhibitors” (Bioorg Med Chem Lett, 2017)
≈ marks a conversion by molar mass, not a printed value.

Columns and labels:
[1] = tested on: Bacillus amyloliquefaciens; test: Antibacterial activity against Bacillus amyloliquefaciens after 24 hrs by plate colony counting method; type: functional
Staphylococcus aureus [2] = test: Antibacterial activity against Staphylococcus aureus after 24 hrs by plate colony counting method; type: functional
Bacillus subtilis [3] = test: Antibacterial activity against Bacillus subtilis after 24 hrs by plate colony counting method; type: functional
Escherichia coli [4] = test: Inhibition of Escherichia coli BL21.19 SecA at 20 ug/ml after 30 mins by malachite green dye-based assay relative to control
[5] = tested on: Bacillus amyloliquefaciens; test: Antibacterial activity against Bacillus amyloliquefaciens at 25 ug/ml after 24 hrs by plate colony counting method relative to control; type: functional
Bacillus subtilis [6] = test: Antibacterial activity against Bacillus subtilis at 25 ug/ml after 24 hrs by plate colony counting method relative to control; type: functional
[7] = Inhibition of Escherichia coli BL21.19 SecA after 30 mins by malachite green dye-based assay
Staphylococcus aureus [8] = test: Antibacterial activity against Staphylococcus aureus at 25 ug/ml after 24 hrs by plate colony counting method relative to control; type: functional
Escherichia coli [9] = test: Inhibition of Escherichia coli BL21.19 SecA at 40 ug/ml after 30 mins by malachite green dye-based assay relative to control

Row | MIC [1] [µg/mL] | MIC (Staphylococcus aureus [2]) [µg/mL] | MIC (Bacillus subtilis [3]) [µg/mL] | inhibition (Escherichia coli [4]) [%] | IC50 [7] [µg/mL] | inhibition (Escherichia coli [9]) [%] | Structure (SMILES) | inhibition at 25 µg/mL [5] [%] | inhibition at 25 µg/mL (Bacillus subtilis [6]) [%] | inhibition at 25 µg/mL (Staphylococcus aureus [8]) [%]
1 | 25 (≈ 47 µM) | 50 (≈ 94 µM) | 25 (≈ 47 µM) | 50 | 17.9 (≈ 33.6 µM) |  | N#Cc1c(-c2ccccc2Cl)nc(SCc2ccc(C(=O)NC(=S)Nc3ccccc3)cc2)[nH]c1=O | 67 | 87 | 80
2 |  |  |  |  |  |  | Cc1ccccc1NC(=S)NC(=O)c1ccc(CSc2nc(-c3ccc(Cl)cc3)c(C#N)c(=O)[nH]2)cc1 | 61 | 78 | 58
3 |  |  |  |  |  |  | Cc1ccccc1NC(=S)NC(=O)c1ccc(CSc2nc(-c3ccc(Cl)cc3Cl)c(C#N)c(=O)[nH]2)cc1 | 55 | 54 | 66
4 | 12.5 (≈ 17.5 µM) | 25 (≈ 35.1 µM) | 50 (≈ 70.1 µM) |  | 20.8 (≈ 29.2 µM) |  | N#Cc1c(-c2ccc(-c3ccccc3)cc2)nc(SCc2ccc(CSc3nc(-c4ccc(-c5ccccc5)cc4)c(C#N)c(=O)[nH]3)cc2)[nH]c1=O | 87 | 44 | 79
5 |  |  |  |  |  |  | Cc1ccccc1NC(=S)NC(=O)c1ccc(CSc2nc(-c3c(Cl)cccc3Cl)c(C#N)c(=O)[nH]2)cc1 | 50 | 62 | 64
6 |  |  |  |  |  |  | N#Cc1c(-c2ccc(Cl)cc2)nc(SCc2ccc(C(=O)NC(=S)Nc3ccccc3)cc2)[nH]c1=O | 70 | 63 | 67
7 |  |  |  |  |  |  | N#Cc1c(-c2ccc(-c3ccccc3)cc2)nc(SCc2ccc(C(=O)NC(=S)Nc3ccc(Cl)cc3)cc2)[nH]c1=O | 75 | 56 | 76
8 |  |  |  |  |  |  | N#Cc1c(-c2c(Cl)cccc2Cl)nc(SCc2ccc(C(=O)NC(=S)Nc3ccc(Cl)cc3)cc2)[nH]c1=O | 49 | 63 | 68
9 |  |  |  |  |  |  | N#Cc1c(-c2ccc(Cl)cc2)nc(SCc2ccc(C(=O)NC(=S)Nc3ccc(Cl)cc3)cc2)[nH]c1=O | 61 | 91 | 62
10 |  |  |  |  |  |  | N#Cc1c(-c2ccccc2)nc(SCc2ccc(C(=O)NC(=S)Nc3c(Cl)cccc3Cl)cc2)[nH]c1=O | 81 | 84 | 70
11 | 25 (≈ 41.6 µM) | 50 (≈ 83.2 µM) | 50 (≈ 83.2 µM) | 50 | 16 (≈ 26.6 µM) |  | N#Cc1c(-c2ccccc2Cl)nc(SCc2ccc(C(=O)NC(=S)Nc3c(Cl)cccc3Cl)cc2)[nH]c1=O | 89 | 92 | 79
12 |  |  |  |  |  |  | N#Cc1c(-c2ccccc2Cl)nc(SCc2ccc(C(=O)NC(=S)Nc3ccc(Cl)cc3)cc2)[nH]c1=O | 63 | 68 | 68
13 | 50 (≈ 78.7 µM) | 50 (≈ 78.7 µM) | 50 (≈ 78.7 µM) |  |  |  | N#Cc1c(-c2ccc(Cl)cc2Cl)nc(SCc2ccc(C(=O)NC(=S)Nc3c(Cl)cccc3Cl)cc2)[nH]c1=O | 72 | 69 | 68
14 | 25 (≈ 41.6 µM) | 50 (≈ 83.2 µM) | 50 (≈ 83.2 µM) |  | 38.8 (≈ 64.6 µM) | 50 | N#Cc1c(-c2ccc(Cl)cc2)nc(SCc2ccc(C(=O)NC(=S)Nc3c(Cl)cccc3Cl)cc2)[nH]c1=O | 81 | 80 | 81
15 |  |  |  |  |  |  | Cc1ccccc1NC(=S)NC(=O)c1ccc(CSc2nc(-c3ccccc3)c(C#N)c(=O)[nH]2)cc1 | 69 | 78 | 63
16 |  |  |  |  | 39.4 (≈ 74.1 µM) | 50 | N#Cc1c(-c2ccccc2)nc(SCc2ccc(C(=O)NC(=S)Nc3ccc(Cl)cc3)cc2)[nH]c1=O | 79 | 71 | 64
17 |  |  |  |  |  |  | N#Cc1c(-c2ccc(Cl)cc2Cl)nc(SCc2ccc(C(=O)NC(=S)Nc3ccc(Cl)cc3)cc2)[nH]c1=O | 74 | 74 | 69
18 | 50 (≈ 87.2 µM) | 50 (≈ 87.2 µM) | 50 (≈ 87.2 µM) |  |  |  | N#Cc1c(-c2ccc(-c3ccccc3)cc2)nc(SCc2ccc(C(=O)NC(=S)Nc3ccccc3)cc2)[nH]c1=O | 62 | 72 | 83
19 | 50 (≈ 78.7 µM) | 50 (≈ 78.7 µM) | 50 (≈ 78.7 µM) |  |  |  | N#Cc1c(-c2c(Cl)cccc2Cl)nc(SCc2ccc(C(=O)NC(=S)Nc3c(Cl)cccc3Cl)cc2)[nH]c1=O | 53 | 73 | 79
20 |  |  |  |  |  |  | N#Cc1c(-c2ccc(Cl)cc2Cl)nc(SCc2ccc(C(=O)NC(=S)Nc3ccccc3)cc2)[nH]c1=O | 56 | 66 | 79
21 |  |  |  |  |  |  | N#Cc1c(-c2c(Cl)cccc2Cl)nc(SCc2ccc(C(=O)NC(=S)Nc3ccccc3)cc2)[nH]c1=O | 71 | 55 | 71
22 |  |  |  |  |  |  | Cc1ccccc1NC(=S)NC(=O)c1ccc(CSc2nc(-c3ccc(-c4ccccc4)cc3)c(C#N)c(=O)[nH]2)cc1 | 73 | 78 | 67
23 | 50 (≈ 77.8 µM) | 50 (≈ 77.8 µM) | 50 (≈ 77.8 µM) |  |  |  | N#Cc1c(-c2ccc(-c3ccccc3)cc2)nc(SCc2ccc(C(=O)NC(=S)Nc3c(Cl)cccc3Cl)cc2)[nH]c1=O | 71 | 69 | 80
24 |  |  |  |  |  |  | Cc1ccccc1NC(=S)NC(=O)c1ccc(CSc2nc(-c3ccccc3Cl)c(C#N)c(=O)[nH]2)cc1 | 78 | 82 | 71
25 |  |  |  |  |  |  | N#Cc1c(-c2ccccc2)nc(SCc2ccc(C(=O)NC(=S)Nc3ccccc3)cc2)[nH]c1=O | 70 | 63 | 67

Row | Structure (SMILES) | MIC [1] [µg/mL] | MIC (Staphylococcus aureus [2]) [µg/mL] | MIC (Bacillus subtilis [3]) [µg/mL] | inhibition (Escherichia coli [4]) [%] | IC50 [7] [µg/mL] | inhibition (Escherichia coli [9]) [%] | inhibition at 25 µg/mL [5] [%] | inhibition at 25 µg/mL (Bacillus subtilis [6]) [%] | inhibition at 25 µg/mL (Staphylococcus aureus [8]) [%]
26 | CCn1cc(C(=O)O)c(=O)c2cc(F)c(N3CCNCC3)cc21 [NORFLOXACIN] | 25 (≈ 78.3 µM) | 25 (≈ 78.3 µM) | 25 (≈ 78.3 µM) |  |  |  | 84 | 89 | 78
